Source: ChEMBL document CHEMBL1909046, “DrugMatrix in vitro pharmacology data”
pIC50, pKi: −log10 of the molar value.

What was measured:
[1] = DRUGMATRIX: GABAA, Flunitrazepam, Central radioligand binding (ligand: [3H] Flunitrazepam); type: cell membranes, Rattus norvegicus, Wistar, Brain, Membrane; conditions: Not Active = under 50% inhibition at 10 µM
[2] = biological target: T1, Endothelin-1 receptor (Homo sapiens, UniProt P25101); type: cell membranes, CHO-K1, Membrane; conditions: cho-k1; also: in other assays of this panel Not Active means under 50% inhibition at 10 µM
T1 sequence (P25101 whole entry): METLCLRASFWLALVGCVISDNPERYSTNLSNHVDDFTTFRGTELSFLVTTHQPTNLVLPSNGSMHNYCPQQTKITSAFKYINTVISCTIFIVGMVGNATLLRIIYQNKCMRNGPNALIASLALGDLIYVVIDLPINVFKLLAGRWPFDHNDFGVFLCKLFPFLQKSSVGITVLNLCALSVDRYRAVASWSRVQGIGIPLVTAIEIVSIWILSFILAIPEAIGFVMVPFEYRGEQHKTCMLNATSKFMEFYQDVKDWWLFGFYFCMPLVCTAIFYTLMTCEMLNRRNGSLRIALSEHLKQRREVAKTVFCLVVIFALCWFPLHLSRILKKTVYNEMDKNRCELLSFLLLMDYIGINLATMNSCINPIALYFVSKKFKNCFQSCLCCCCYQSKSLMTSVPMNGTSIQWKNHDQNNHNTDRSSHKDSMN

[3] = biological target: T2, Neuropeptide Y receptor type 1 (Homo sapiens, UniProt P25929); type: cell membranes, Membrane; conditions: sk-n-mc; also: in other assays of this panel Not Active means under 50% inhibition at 10 µM
T2 sequence (P25929 whole entry): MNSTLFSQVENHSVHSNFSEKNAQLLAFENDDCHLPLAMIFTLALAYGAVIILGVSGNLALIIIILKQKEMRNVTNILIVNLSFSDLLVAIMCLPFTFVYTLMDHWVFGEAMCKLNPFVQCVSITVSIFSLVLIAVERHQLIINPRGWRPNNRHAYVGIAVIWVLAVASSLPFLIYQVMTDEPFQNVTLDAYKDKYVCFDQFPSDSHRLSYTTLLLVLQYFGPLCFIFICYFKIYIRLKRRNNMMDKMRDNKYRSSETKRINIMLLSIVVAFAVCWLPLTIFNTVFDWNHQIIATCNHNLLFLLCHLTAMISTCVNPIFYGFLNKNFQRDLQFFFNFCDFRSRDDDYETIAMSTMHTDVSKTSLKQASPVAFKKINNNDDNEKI

[4] = biological target: Tyrosine-protein kinase Lck (Homo sapiens, UniProt P06239); assay: DRUGMATRIX: Protein Tyrosine Kinase, LCK enzyme inhibition (substrate: Poly(Glu:Tyr)); type: cell-based, Insect cells; conditions: Not Active = under 50% inhibition at 10 µM; for IC50 / Ki: insect cells
Chain of Tyrosine-protein kinase Lck (P06239 whole entry): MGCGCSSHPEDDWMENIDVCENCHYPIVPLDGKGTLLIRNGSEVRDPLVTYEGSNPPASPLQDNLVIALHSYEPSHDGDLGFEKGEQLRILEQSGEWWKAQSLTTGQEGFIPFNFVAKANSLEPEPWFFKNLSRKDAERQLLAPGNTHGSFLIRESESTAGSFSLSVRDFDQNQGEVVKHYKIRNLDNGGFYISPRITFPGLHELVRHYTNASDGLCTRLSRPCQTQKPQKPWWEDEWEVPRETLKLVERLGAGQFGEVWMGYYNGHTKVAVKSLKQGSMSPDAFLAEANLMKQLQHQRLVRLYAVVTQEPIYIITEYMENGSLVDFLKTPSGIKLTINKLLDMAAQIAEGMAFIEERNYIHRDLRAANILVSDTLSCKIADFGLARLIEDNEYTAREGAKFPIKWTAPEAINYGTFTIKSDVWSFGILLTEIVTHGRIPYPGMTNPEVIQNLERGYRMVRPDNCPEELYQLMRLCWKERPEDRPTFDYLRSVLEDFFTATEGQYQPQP

[5] = biological target: T3, Glucocorticoid receptor (Homo sapiens, UniProt P04150); conditions: hela s3; also: in other assays of this panel Not Active means under 50% inhibition at 10 µM
T3 sequence (P04150 whole entry): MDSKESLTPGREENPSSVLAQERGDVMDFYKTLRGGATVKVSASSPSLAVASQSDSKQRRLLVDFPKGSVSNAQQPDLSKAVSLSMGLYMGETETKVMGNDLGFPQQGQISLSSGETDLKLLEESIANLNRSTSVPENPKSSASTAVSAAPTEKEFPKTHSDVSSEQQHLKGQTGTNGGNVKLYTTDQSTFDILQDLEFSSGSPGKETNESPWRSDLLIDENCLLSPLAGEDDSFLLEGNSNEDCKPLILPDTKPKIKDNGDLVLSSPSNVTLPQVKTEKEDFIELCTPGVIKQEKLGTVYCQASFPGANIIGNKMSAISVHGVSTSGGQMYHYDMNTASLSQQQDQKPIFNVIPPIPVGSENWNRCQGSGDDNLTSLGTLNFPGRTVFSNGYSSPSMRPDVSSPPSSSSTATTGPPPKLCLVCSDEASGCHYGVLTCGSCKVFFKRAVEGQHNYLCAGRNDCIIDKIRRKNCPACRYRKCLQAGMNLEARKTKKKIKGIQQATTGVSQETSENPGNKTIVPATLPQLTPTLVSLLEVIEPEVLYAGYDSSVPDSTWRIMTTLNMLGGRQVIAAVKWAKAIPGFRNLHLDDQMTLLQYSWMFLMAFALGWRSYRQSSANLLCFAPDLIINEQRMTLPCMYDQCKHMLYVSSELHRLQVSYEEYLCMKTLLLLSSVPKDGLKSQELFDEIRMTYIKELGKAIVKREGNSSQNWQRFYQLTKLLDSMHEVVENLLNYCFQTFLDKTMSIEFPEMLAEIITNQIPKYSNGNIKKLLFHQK

[6] = biological target: 5-hydroxytryptamine receptor 6 (Homo sapiens, UniProt P50406); type: cell membranes, HeLa, Membrane; conditions: hela; also: in other assays of this panel Not Active means under 50% inhibition at 10 µM
Chain of 5-hydroxytryptamine receptor 6 (P50406 whole entry): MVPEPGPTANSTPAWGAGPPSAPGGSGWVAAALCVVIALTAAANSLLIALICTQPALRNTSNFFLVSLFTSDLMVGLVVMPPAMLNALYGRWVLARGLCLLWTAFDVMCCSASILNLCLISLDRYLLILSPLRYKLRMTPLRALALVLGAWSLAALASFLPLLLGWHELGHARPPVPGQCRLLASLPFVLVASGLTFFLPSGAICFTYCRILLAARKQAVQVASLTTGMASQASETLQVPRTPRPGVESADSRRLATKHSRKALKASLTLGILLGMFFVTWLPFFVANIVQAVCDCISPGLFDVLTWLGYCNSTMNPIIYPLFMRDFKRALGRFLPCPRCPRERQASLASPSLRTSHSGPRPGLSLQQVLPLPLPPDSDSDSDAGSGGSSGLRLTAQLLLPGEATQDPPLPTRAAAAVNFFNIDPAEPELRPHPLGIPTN

[7] = biological target: T4, Type-2 angiotensin II receptor (Homo sapiens, UniProt P50052); type: cell-based; conditions: cho-k1; also: in other assays of this panel Not Active means under 50% inhibition at 10 µM
T4 sequence (P50052 whole entry): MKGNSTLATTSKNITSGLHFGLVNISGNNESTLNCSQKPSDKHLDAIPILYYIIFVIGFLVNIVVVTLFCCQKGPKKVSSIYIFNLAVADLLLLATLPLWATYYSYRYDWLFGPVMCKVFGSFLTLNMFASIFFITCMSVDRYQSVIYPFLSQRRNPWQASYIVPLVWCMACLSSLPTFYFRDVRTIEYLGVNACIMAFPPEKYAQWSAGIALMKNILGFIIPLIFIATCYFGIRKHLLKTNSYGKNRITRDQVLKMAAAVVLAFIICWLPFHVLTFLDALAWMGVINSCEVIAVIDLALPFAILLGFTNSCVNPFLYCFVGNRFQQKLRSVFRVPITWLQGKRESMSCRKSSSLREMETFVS

Molecule	IC50 [1]	Ki [1]	IC50 [2]	IC50 [3]	IC50 [4]	IC50 [5]	IC50 [6]	IC50 [7]	Ki [2]	Ki [3]	Ki [4]	Ki [5]	Ki [6]	Ki [7]	pIC50 ([4]; read-out: IC50)	pIC50 ([1]; read-out: IC50)	pKi ([1]; read-out: Ki)
CCOC(=O)[C@H](CCc1ccccc1)N[C@@H](C)C(=O)N1CCC[C@H]1C(=O)O	Not Active	Not Active	Not Active	Not Active	Not Active	Not Active	Not Active	Not Active	–	–	–	–	–	–	–	–	–
POLYVINYL ALCOHOL	Not Active	Not Active	Not Active	Not Active	Not Active	Not Active	Not Active	Not Active	Not Active	Not Active	Not Active	Not Active	Not Active	Not Active	–	–	–
CO[C@@]1(NC(=O)CSCC#N)C(=O)N2C(C(=O)O)=C(CSc3nnnn3C)CS[C@@H]21 [CEFMETAZOLE]	Not Active	Not Active	Not Active	Not Active	Not Active	Not Active	Not Active	Not Active	–	–	–	–	–	–	–	–	–
C[C@@H]1CC[C@H]2[C@@H](C)C(=O)O[C@@H]3O[C@@]4(C)CC[C@@H]1[C@]32OO4 [ARTEMISININ]	Not Active	Not Active	Not Active	Not Active	Not Active	Not Active	Not Active	Not Active	–	–	–	–	–	–	–	–	–
CCCCCC[C@H]1C(=O)O[C@H](C)[C@H](NC(=O)c2cccc(NC=O)c2O)C(=O)O[C@@H](C)[C@@H]1OC(=O)CC(C)C [ANTIMYCIN A]	Not Active	Not Active	Not Active	Not Active	Not Active	Not Active	Not Active	Not Active	–	–	–	–	–	–	–	–	–
COc1ccc2cc(CCC(C)=O)ccc2c1 [NABUMETONE]	Not Active	Not Active	Not Active	Not Active	Not Active	Not Active	Not Active	Not Active	–	–	–	–	–	–	–	–	–
CCCCC1C(=O)N(c2ccccc2)N(c2ccccc2)C1=O [PHENYLBUTAZONE]	Not Active	Not Active	Not Active	Not Active	Not Active	Not Active	Not Active	Not Active	–	–	–	–	–	–	–	–	–
C=C1/C(=C\C=C2/CCC[C@]3(C)[C@@H]([C@H](C)CCCC(C)C)CC[C@@H]23)C[C@@H](O)C[C@@H]1O [ALFACALCIDOL]	Not Active	Not Active	Not Active	Not Active	Not Active	Not Active	Not Active	Not Active	–	–	–	–	–	–	–	–	–
CNC(=C[N+](=O)[O-])NCCSCc1csc(CN(C)C)n1 [NIZATIDINE]	Not Active	Not Active	Not Active	Not Active	Not Active	Not Active	Not Active	Not Active	–	–	–	–	–	–	–	–	–
O=C(c1ccccc1Cl)N1CCC(Cc2ccccc2)CC1	Not Active	Not Active	Not Active	Not Active	Not Active	Not Active	Not Active	Not Active	–	–	–	–	–	–	–	–	–
Cc1cccc(Nc2cc(Cl)nc(SCC(=O)O)n2)c1C [PIRINIXIC ACID]	Not Active	Not Active	Not Active	Not Active	Not Active	Not Active	Not Active	Not Active	–	–	–	–	–	–	–	–	–
CC(CCc1ccc(O)cc1)NCCc1ccc(O)c(O)c1 (stereo not given) [DOBUTAMINE]	Not Active	Not Active	Not Active	Not Active	–	Not Active	Not Active	Not Active	–	–	–	–	–	–	5.26	–	–
CC(C)(Sc1cc(C(C)(C)C)c(O)c(C(C)(C)C)c1)Sc1cc(C(C)(C)C)c(O)c(C(C)(C)C)c1 [PROBUCOL]	Not Active	Not Active	Not Active	Not Active	Not Active	Not Active	Not Active	Not Active	–	–	–	–	–	–	–	–	–
C/C=C\c1ccc(O)c(OC)c1 [ISOEUGENOL]	Not Active	Not Active	Not Active	Not Active	Not Active	Not Active	Not Active	Not Active	–	–	–	–	–	–	–	–	–
CCOC(=O)C1=C(C)NC(C)=C(C(=O)OC)C1c1cccc(Cl)c1Cl (stereo not given) [FELODIPINE]	Not Active	Not Active	Not Active	Not Active	Not Active	Not Active	Not Active	Not Active	–	–	–	–	–	–	–	–	–
Cc1cn[nH]c1 [FOMEPIZOLE]	Not Active	Not Active	Not Active	Not Active	Not Active	Not Active	Not Active	Not Active	–	–	–	–	–	–	–	–	–
Cc1c(N(C)CS(=O)(=O)[O-])c(=O)n(-c2ccccc2)n1C.[Na+] [DIPYRONE SODIUM]	Not Active	Not Active	Not Active	Not Active	Not Active	Not Active	Not Active	Not Active	–	–	–	–	–	–	–	–	–
CN1C(=O)CN=C(c2ccccc2)c2cc(Cl)ccc21 [DIAZEPAM]	–	–	Not Active	Not Active	Not Active	Not Active	Not Active	Not Active	–	–	–	–	–	–	–	7.54	7.63
CO[C@H]1[C@@H](O)[C@H](N)[C@@H](O[C@H]2O[C@H]([C@H](C)N)CC[C@H]2N)[C@H](O)[C@@H]1N(C)C(=O)CN [ASTROMICIN]	Not Active	Not Active	Not Active	Not Active	Not Active	Not Active	Not Active	Not Active	–	–	–	–	–	–	–	–	–
CCC(=O)O[C@H]1[C@H](O[C@@H]2[C@@H](C)[C@H](O[C@H]3C[C@@](C)(OC)[C@@H](O)[C@H](C)O3)[C@@H](C)C(=O)O[C@H](CC)[C@@](C)(O)[C@H](O)[C@@H](C)C(=O)[C@H](C)C[C@@]2(C)O)O[C@H](C)C[C@@H]1N(C)C [ERYTHROMYCIN PROPIONATE]	Not Active	Not Active	Not Active	Not Active	Not Active	Not Active	Not Active	Not Active	–	–	–	–	–	–	–	–	–
COBALT(II) ACETYLACETONATE	Not Active	Not Active	Not Active	Not Active	Not Active	Not Active	Not Active	Not Active	Not Active	Not Active	Not Active	Not Active	Not Active	Not Active	–	–	–
